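Five concentrations, 48 hours, 96-well plates. Here, GI50 denotes the concentration required for 50% inhibition of growth. TGI: concentration producing complete growth inhibition.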
Columns and labels:
Assay in all cases: growth of human tumour cells (NCI), 48 h
[1] = system: 786-0 renal
[2] = system: A498 renal
[3] = system: A549 NSCLC
[4] = system: ACHN renal
[5] = system: BT-549 breast
[6] = system: CAKI-1 renal
[7] = system: CCRF-CEM leukemia
[8] = system: COLO 205 colon
[9] = system: DU-145 prostate
[10] = system: EKVX NSCLC
[11] = system: HCC-2998 colon
[12] = system: HCT-116 colon
[13] = system: HCT-15 colon
[14] = system: HL-60(TB) leukemia
[15] = system: HOP-62 NSCLC
[16] = system: HOP-92 NSCLC
[17] = system: HS 578T breast
[18] = system: HT29 colon
[19] = system: IGROV1 ovarian
[20] = system: K-562 leukemia
[21] = system: KM12 colon
[22] = system: LOX IMVI melanoma
[23] = system: M14 melanoma
[24] = system: MALME-3M melanoma
[25] = system: MCF7 breast
[26] = system: MDA-MB-231 breast
[27] = system: MDA-MB-435
[28] = system: MOLT-4 leukemia
[29] = system: NCI-H226 lung
[30] = system: NCI-H23 lung
[31] = system: NCI-H460 lung
[32] = system: NCI-H522 lung
[33] = system: NCI/ADR-RES ovarian
[34] = system: OVCAR-3 ovarian
[35] = system: OVCAR-4 ovarian
[36] = system: OVCAR-5 ovarian
[37] = system: OVCAR-8 ovarian
[38] = system: PC-3 prostate
[39] = system: RPMI-8226 leukemia
[40] = system: RXF 393 renal
[41] = system: SF-268 CNS
[42] = system: SF-295 CNS
[43] = system: SF-539 CNS
[44] = system: SK-MEL-2 melanoma
[45] = system: SK-MEL-28 melanoma
[46] = system: SK-MEL-5 melanoma
[47] = system: SK-OV-3 ovarian
[48] = system: SN12C renal
[49] = system: SNB-19 CNS
[50] = system: SNB-75 CNS
[51] = system: SR leukemia
[52] = system: SW-620 colon
[53] = system: T-47D breast
[54] = system: TK-10 renal
[55] = system: U251 CNS
[56] = system: UACC-257 melanoma
[57] = system: UACC-62 melanoma
[58] = system: UO-31 renal

## Cc1cccc(Cc2cnc(NC(=O)CCc3ccc(C)o3)s2)c1
[1]
  GI50: 724 nM
  TGI: > 100000 nM
[2]
  GI50: 343 nM
  TGI: 10500 nM
[3]
  GI50: 370 nM
  TGI: > 100000 nM
[4]
  GI50: 526 nM
  TGI: > 100000 nM
[5]
  GI50: 814 nM
  TGI: > 100000 nM
[6]
  GI50: 235 nM
  TGI: 50800 nM
[7]
  GI50: 234 nM
  TGI: > 100000 nM
[8]
  GI50: 227 nM
  TGI: 716 nM
[9]
  GI50: 380 nM
  TGI: > 95800 nM
[10]
  GI50: 585 nM
  TGI: > 100000 nM
[11]
  GI50: 409 nM
  TGI: > 100000 nM
[12]
  GI50: 242 nM
  TGI: > 100000 nM
[13]
  GI50: 72.9 nM
  TGI: > 100000 nM
[14]
  GI50: 161 nM
  TGI: 440 nM
[15]
  GI50: 345 nM
  TGI: > 55600 nM
[16]
  GI50: 7310 nM
  TGI: 98700 nM
[17]
  GI50: 356 nM
  TGI: > 95300 nM
[18]
  GI50: 169 nM
  TGI: 4040 nM
[19]
  GI50: 555 nM
  TGI: > 100000 nM
[20]
  GI50: 54.1 nM
  TGI: > 100000 nM
[21]
  GI50: 160 nM
  TGI: > 100000 nM
[22]
  GI50: 518 nM
  TGI: > 100000 nM
[23]
  GI50: 136 nM
  TGI: > 41400 nM
[24]
  TGI: > 100000 nM
[25]
  GI50: 49.5 nM
  TGI: > 100000 nM
[26]
  GI50: 450 nM
  TGI: 23800 nM
[27]
  GI50: 30.2 nM
  TGI: 120 nM
[28]
  GI50: 371 nM
  TGI: > 100000 nM
[29]
  GI50: 8690 nM
  TGI: > 100000 nM
[30]
  GI50: 593 nM
  TGI: > 100000 nM
[31]
  GI50: 263 nM
  TGI: > 100000 nM
[32]
  GI50: 183 nM
[33]
  GI50: 228 nM
  TGI: > 100000 nM
[34]
  GI50: 192 nM
  TGI: 731 nM
[35]
  GI50: 1230 nM
  TGI: > 100000 nM
[36]
  GI50: 798 nM
  TGI: > 100000 nM
[37]
  GI50: 406 nM
  TGI: > 100000 nM
[38]
  GI50: 336 nM
  TGI: > 100000 nM
[39]
  GI50: 318 nM
  TGI: > 100000 nM
[40]
  GI50: 204 nM
  TGI: 3710 nM
[41]
  GI50: 903 nM
  TGI: > 100000 nM
[42]
  GI50: 195 nM
  TGI: 12600 nM
[43]
  GI50: 202 nM
  TGI: 642 nM
[44]
  GI50: 404 nM
  TGI: > 100000 nM
[45]
  GI50: 2060 nM
  TGI: > 100000 nM
[46]
  GI50: 107 nM
  TGI: 6080 nM
[47]
  GI50: 419 nM
  TGI: > 100000 nM
[48]
  GI50: 525 nM
  TGI: > 100000 nM
[49]
  GI50: 370 nM
  TGI: > 100000 nM
[50]
  GI50: 165 nM
  TGI: 5670 nM
[51]
  GI50: 54.3 nM
  TGI: > 100000 nM
[52]
  GI50: 142 nM
  TGI: > 100000 nM
[53]
  GI50: 427 nM
  TGI: > 100000 nM
[54]
  GI50: 1490 nM
  TGI: > 100000 nM
[55]
  GI50: 293 nM
  TGI: > 100000 nM
[56]
  GI50: 15400 nM
  TGI: > 100000 nM
[57]
  GI50: 160 nM
  TGI: > 100000 nM
[58]
  GI50: 589 nM
  TGI: > 100000 nM
